Laboratory results as given in US10597388B2, “Pyridazinone herbicides” (FMC CORPORATION, priority 2014, dated 2020).

Tests used:
Format in all cases: in vivo
corn (Zea mays) = assay: Test A greenhouse herbicide test, pre- and postemergence; conditions: Postemergence; for Plant response rating, Corn: 125 g ai/ha, visual rating after approx. 10 d, 0 to 100 scale (0 no effect, 100 complete control); for Corn plant response rating: 500 g ai/ha, 0 to 100 scale, 0 is no effect, 100 is complete control
Outline: (§1)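 Seeds sown in loam–sand blend got a preemergence directed soil spray of compound in non-phytotoxic solvent with surfactant. Postemergence treatment was given at 2–10 cm, one- to two-leaf stage. After ~10 d in greenhouse, injury was rated visually vs untreated controls, 0 (no effect) to 100 (complete control).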

[1] = tested on: foxtail, giant (giant foxtail, Setaria faberii); assay: as above
Outline: as §1

kochia (Kochia scoparia) = assay: as above
Outline: as §1

[2] = tested on: ragweed (common ragweed, Ambrosia elatior); assay: as above
Outline: as §1

[3] = tested on: ryegrass, Italian (Italian ryegrass, Lolium multiflorum); assay: as above
Outline: as §1

[4] = tested on: wheat (Triticum aestivum); assay: as above; conditions: Postemergence; for Plant response rating, Wheat: 125 g ai/ha, 0 to 100 scale where 0 is no effect and 100 is complete control; for Wheat plant response rating: 500 g ai/ha, 0 to 100 scale, 0 is no effect, 100 is complete control
Outline: as §1

[5] = tested on: blackgrass (Alopecurus myosuroides); assay: Test A greenhouse herbicide test, postemergence; conditions: for Plant response rating, Blackgrass: 125 g ai/ha, visual rating after approx. 10 d, 0 to 100 scale (0 no effect, 100 complete control); for Blackgrass plant response rating: 500 g ai/ha, 0 to 100 scale, 0 is no effect, 100 is complete control
Outline: (§2)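 Greenhouse postemergence test: formulated chemicals sprayed on one- to two-leaf plants (2 to 10 cm), grown in loam soil blended with sand. Injury assessed visually about 10 d later against untreated controls, scored 0 (no effect) to 100 (complete control).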

[6] = tested on: galium (catchweed bedstraw, Galium aparine); assay: Test A greenhouse herbicide test, postemergence; conditions: for Plant response rating, Galium: 125 g ai/ha, visual rating after approx. 10 d, 0 to 100 scale (0 no effect, 100 complete control); for Galium plant response rating: 500 g ai/ha, 0 to 100 scale, 0 is no effect, 100 is complete control
Outline: as §2

[7] = tested on: galium (catchweed bedstraw, Galium aparine); assay: Test C greenhouse herbicide test, pre- and postemergence
Outline: (§3)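 Preemergence: seeds sown in a loam soil–sand blend and sprayed with test chemicals in a non-phytotoxic solvent mixture containing surfactant. Postemergence: plants grown in peat-based medium and treated at 2 to 18 cm (1- to 4-leaf stage). After 13 to 15 d in a greenhouse, injury was visually rated 0–100 against controls.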

[8] = tested on: ragweed (common ragweed, Ambrosia elatior); assay: as above
Outline: as §3

[9] = tested on: ryegrass, Italian (Italian ryegrass, Lolium multiflorum); assay: as above
Outline: as §3

soybean (Glycine max) = assay: as above
Outline: as §3

[10] = Postemergence, 125 g ai/ha, visual rating after approx. 10 d, 0 to 100 scale (0 no effect, 100 complete control)
[11] = Postemergence, 500 g ai/ha, 0 to 100 scale, 0 is no effect, 100 is complete control
[12] = Preemergence, 125 g ai/ha, 0 to 100 scale where 0 is no effect and 100 is complete control
[13] = Preemergence, 500 g ai/ha, 0 to 100 scale, 0 no effect, 100 complete control
[14] = Postemergence, 125 g ai/ha, 0 to 100 scale where 0 is no effect and 100 is complete control
[15] = Postemergence, 31 g ai/ha, 0 to 100 scale (0 no effect, 100 complete control)
[16] = Postemergence, 125 g ai/ha, scale 0 to 100, 0 is no effect, 100 is complete control
[17] = Postemergence, 250 g ai/ha, scale 0 to 100, 0 no effect, 100 complete control, 13 to 15 d
[18] = postemergence, 62 g ai/ha, scale 0 to 100, 0 no effect, 100 complete control
[19] = Preemergence, 31 g ai/ha, scale 0 to 100, 0 is no effect, 100 is complete control
[20] = Preemergence, 62 g ai/ha, scale 0 to 100, 0 is no effect, 100 is complete control
[21] = Preemergence, 125 g ai/ha, scale 0 to 100, 0 is no effect, 100 is complete control
[22] = Preemergence, 250 g ai/ha, scale 0 to 100 (0 no effect, 100 complete control)

COc1nn(C)c(=O)c(-c2c(C)sc3ccccc23)c1O [Compound 33]
Plant response rating, Corn (corn (Zea mays)): 0
Corn plant response rating (corn (Zea mays)): 10
Plant response rating, Foxtail, Giant [1, 10]: 40
Foxtail, Giant plant response rating [1, 11]: 90
Foxtail, Giant plant response rating [1, 12]: 50
Plant response rating, Foxtail, Giant [1, 13]: 70
Plant response rating, Kochia (kochia (Kochia scoparia); [10]): 90
Kochia plant response rating (kochia (Kochia scoparia); [11]): 100
Kochia plant response rating (kochia (Kochia scoparia); [12]): 30
Plant response rating, Kochia (kochia (Kochia scoparia); [13]): 80
Plant response rating, Ragweed [2, 10]: 90
Ragweed plant response rating [2, 11]: 90
Ragweed plant response rating [2, 12]: 80
Plant response rating, Ragweed [2, 13]: 100
Plant response rating, Ryegrass, Italian [3, 14]: 50
Ryegrass, Italian plant response rating [3, 11]: 70
Ryegrass, Italian plant response rating [3, 12]: 20
Plant response rating, Ryegrass, Italian [3, 13]: 60
Plant response rating, Wheat [4]: 0
Wheat plant response rating [4]: 0
Plant response rating, Blackgrass [5]: 10
Blackgrass plant response rating [5]: 40
Plant response rating, Galium [6]: 90
Galium plant response rating [6]: 100
Galium plant response rating [7, 15]: 90
Plant response rating, Galium [7, 16]: 95
Plant response rating, Galium [7, 17]: 95
Galium plant response rating [7, 18]: 90
Ragweed plant response rating [8, 15]: 85
Plant response rating, Ragweed [8, 16]: 90
Plant response rating, Ragweed [8, 17]: 98
Ragweed plant response rating [8, 18]: 95
Ryegrass, Italian plant response rating [9, 15]: 30
Plant response rating, Ryegrass, Italian [9, 16]: 70
Plant response rating, Ryegrass, Italian [9, 17]: 75
Ryegrass, Italian plant response rating [9, 18]: 45
Soybean plant response rating (soybean (Glycine max); [15]): 0
Plant response rating, Soybean (soybean (Glycine max); [16]): 0
Plant response rating, Soybean (soybean (Glycine max); [17]): 0
Soybean plant response rating (soybean (Glycine max); [18]): 0

COc1nn(C)c(=O)c(-c2c(C)ccc3ccccc23)c1OC(=O)OC(C)C [Compound 36]
Plant response rating, Corn (corn (Zea mays)): 20
Corn plant response rating (corn (Zea mays)): 40
Plant response rating, Foxtail, Giant [1, 10]: 80
Foxtail, Giant plant response rating [1, 11]: 90
Foxtail, Giant plant response rating [1, 12]: 80
Plant response rating, Foxtail, Giant [1, 13]: 90
Plant response rating, Kochia (kochia (Kochia scoparia); [10]): 90
Kochia plant response rating (kochia (Kochia scoparia); [11]): 100
Kochia plant response rating (kochia (Kochia scoparia); [12]): 10
Plant response rating, Kochia (kochia (Kochia scoparia); [13]): 80
Plant response rating, Ragweed [2, 10]: 90
Ragweed plant response rating [2, 11]: 90
Ragweed plant response rating [2, 12]: 80
Plant response rating, Ragweed [2, 13]: 90
Plant response rating, Ryegrass, Italian [3, 14]: 70
Ryegrass, Italian plant response rating [3, 11]: 80
Ryegrass, Italian plant response rating [3, 12]: 70
Plant response rating, Ryegrass, Italian [3, 13]: 70
Plant response rating, Wheat [4]: 20
Wheat plant response rating [4]: 30
Plant response rating, Blackgrass [5]: 60
Blackgrass plant response rating [5]: 80
Plant response rating, Galium [6]: 100
Galium plant response rating [6]: 100
Galium plant response rating [7, 15]: 90
Plant response rating, Galium [7, 16]: 95
Plant response rating, Galium [7, 17]: 95
Plant response rating, Galium [7, 19]: 100
Plant response rating, Galium [7, 20]: 100
Plant response rating, Galium [7, 21]: 100
Galium plant response rating [7, 22]: 100
Galium plant response rating [7, 18]: 95
Ragweed plant response rating [8, 15]: 90
Plant response rating, Ragweed [8, 16]: 95
Plant response rating, Ragweed [8, 17]: 95
Plant response rating, Ragweed [8, 19]: 85
Plant response rating, Ragweed [8, 20]: 90
Plant response rating, Ragweed [8, 21]: 95
Ragweed plant response rating [8, 22]: 95
Ragweed plant response rating [8, 18]: 90
Ryegrass, Italian plant response rating [9, 15]: 55
Plant response rating, Ryegrass, Italian [9, 16]: 60
Plant response rating, Ryegrass, Italian [9, 17]: 80
Plant response rating, Ryegrass, Italian [9, 19]: 30
Plant response rating, Ryegrass, Italian [9, 20]: 30
Plant response rating, Ryegrass, Italian [9, 21]: 35
Ryegrass, Italian plant response rating [9, 22]: 85
Ryegrass, Italian plant response rating [9, 18]: 60
Soybean plant response rating (soybean (Glycine max); [15]): 0
Plant response rating, Soybean (soybean (Glycine max); [16]): 5
Plant response rating, Soybean (soybean (Glycine max); [17]): 15
Plant response rating, Soybean (soybean (Glycine max); [19]): 100
Plant response rating, Soybean (soybean (Glycine max); [20]): 0
Plant response rating, Soybean (soybean (Glycine max); [21]): 30
Soybean plant response rating (soybean (Glycine max); [22]): 20
Soybean plant response rating (soybean (Glycine max); [18]): 0
